Measurements published in ChEMBL document CHEMBL1129024, “Design, synthesis, and antitumor activity of bicyclic and isomeric analogues of illudin M” (Bioorg Med Chem Lett, 1996).

Legend:
Assay type in all cases: functional, cell-based
MDA-MB-231 = assay: In vitro antitumor activity against MB231 (breast) human tumor cell lines.
A-375 = assay: In vitro antitumor activity against A375 (melanoma) human tumor cell lines.
A549 = assay: In vitro antitumor activity against A549 (lung) human tumor cell lines.
SW480 = assay: In vitro antitumor activity against SW480 (colon) human tumor cell lines.

With `CC1=C/C(=C\c2cccs2)C(=O)C(C)(O)C12CC2` (stereo not given) the IC50 (MDA-MB-231) was > 10000 nM, the IC50 (A-375) was > 10000 nM and the IC50 (A549) was > 10000 nM. The IC50 (SW480) was > 10000 nM.

With `C/C=C1\C=C(C)C2(CC2)C(C)(O)C1=O` (stereo not given) the IC50 (MDA-MB-231) was 110 nM, the IC50 (A-375) was 4 nM and the IC50 (A549) was 150 nM. The IC50 (SW480) was 120 nM.

Work on `CC1=C/C(=C\C(C)C)C(=O)C(C)(O)C12CC2` (stereo not given) yielded an IC50 (MDA-MB-231) of 300 nM, an IC50 (A-375) of 130 nM and an IC50 (A549) of 110 nM. The IC50 (SW480) was 30 nM.

Compound `COc1cccc2c1C(=O)c1c(O)c3c(c(O)c1C2=O)C[C@@](O)(C(=O)CO)C[C@@H]3O[C@H]1C[C@H](N)[C@H](O)[C@H](C)O1` [DOXORUBICIN] has an IC50 (MDA-MB-231) of 150 nM, an IC50 (A-375) of 70 nM and an IC50 (A549) of 120 nM. For the same compound, the IC50 (SW480) was 60 nM.

For `C=C1C2=C(CC(C)(C)C2=O)C(=O)C(C)(O)C12CC2` (stereo not given), the IC50 (MDA-MB-231) was 2000 nM, the IC50 (A-375) was 32 nM and the IC50 (A549) was 250 nM. The IC50 (SW480) was 60 nM.

`C=C/C=C1\C=C(C)C2(CC2)C(C)(O)C1=O` (stereo not given) showed an IC50 (MDA-MB-231) of 28 nM, an IC50 (A-375) of 18 nM and an IC50 (A549) of 2 nM. The IC50 (SW480) was 180 nM.

`CC1=C/C(=C\Cl)C(=O)C(C)(O)C12CC2` (stereo not given) showed an IC50 (MDA-MB-231) of 300 nM, an IC50 (A-375) of 1000 nM and an IC50 (A549) of 200 nM. It also gave an IC50 (SW480) of 30 nM.

`CC1=C/C(=C\C#CCCO)C(=O)C(C)(O)C12CC2` (stereo not given) showed an IC50 (MDA-MB-231) of 2000 nM, an IC50 (A-375) of 2000 nM and an IC50 (A549) of 3000 nM. For the same compound, the IC50 (SW480) was 4000 nM.

Work on `CC1=C2C(=O)C(C)(C)C=C2C(=O)[C@](C)(O)C12CC2` [DEHYDROILLUDIN M] yielded an IC50 (MDA-MB-231) of 450 nM, an IC50 (A-375) of 550 nM and an IC50 (A549) of 200 nM. For the same compound, the IC50 (SW480) was 300 nM.

In the case of `CC1=C/C(=C\c2ccccc2)C(=O)C(C)(O)C12CC2` (stereo not given), the IC50 (MDA-MB-231) is reported as 4000 nM, the IC50 (A-375) is reported as > 10000 nM and the IC50 (A549) is reported as 1500 nM. It also gave an IC50 (SW480) of 2500 nM.
